Measured values: PubChem BioAssay AID2060506 (Molecular Pharmacology Branch, DTP, NCI, 2025)
Several values for one entry are separate records, joined by “and”; a condition that tells them apart may be missing. Equal entries are not always repeated.

Test system: 598228-144-R-J1-PDC complex spheroid viability
Assay: Anticancer human tumor 598228-144-R-J1-PDC patient-derived serous endometrial adenocarcinoma cell line growth inhibition [GQUAD]
Settings: for viability, T/C: stronger effect = lower value
Source text: DNA G-quadruplex Stabilizer Agents in Combinations in Complex Spheroids
A high-throughput screen of multi-cell type tumor spheroids was designed to identify active combinations of DNA G-quadruplex stabilizer agents and targeted small molecules. Complex spheroids include a stromal component modeled by human endothelial cells (HUVEC) and fibroblasts modeled by human mesenchymal stem cells (MSCs). The concentration ranges selected for each drug and investigational agent were based upon clinically achievable concentrations if the clinical Cmax of the agent was known.
Compounds. The drugs and investigational agents: pidnarulex (CX-5461; NSC782164), APTO-253 (NSC789042), BRACO-19 (NSC847499), peposertib (NSC802822), ceralasertib (NSC780249), elimusertib (NSC800525), camonsertib (NSC841442), AZD-1390 (NSC803789), olaparib (NSC753686), talazoparib (NSC767125), ART-558 (NSC835418), sotorasib (NSC818433), MRTX-1133 (NSC836407), SN-38 (NSC673596), topotecan (NSC609699), etoposide (NSC141540), doxorubicin (NSC123127), gemcitabine (NSC613327), 5-fluorouracil (NSC19893), paclitaxel (NSC125973), vemurafenib (NSC761431), panobinostat (NSC761190), R-306465 (JNJ-16241199; NSC773264), adavosertib (NSC754352), TP-3654 (NSC805149), carboplatin (NSC241240), KSQ-4279 (NSC840948), and staurosporine (NSC755774) were obtained from the National Cancer Institute (NCI) Developmental Therapeutics Program Chemical Repository (34). The FDA-approved anticancer drug set is available from the NCI Developmental Therapeutics Program. […] The stock solutions were prepared in dimethyl sulfoxide (DMSO, Sigma-Aldrich, St. Louis, MO, cat. D2650) at 800-fold the tested concentration and stored at -70 degrees C prior to their use. All drugs and investigational agents were tested over a range starting from a high concentration at or near the clinical Cmax and decreasing in half-log increments. If the clinical Cmax for an agent had not been determined, the highest concentration tested was 10 microM.
2.3 Cell Culture. All cells were maintained in an incubator at 37 degrees C and 5% CO2 with 95% humidity. The PDC lines were cultured according to standard operating procedures established by the NCI PDMR. All PDCs were thawed and cultured in Matrigel-coated flasks prepared with a working solution of 1X Ham's F-12 nutrient mix, without supplementation (Invitrogen, cat. 11765054), 100 U/mL penicillin-streptomycin (Invitrogen, cat. 15140122), and 2.5% Matrigel (Corning Inc., cat. 354248) for the first three passages. The 857933-349-R-J2-PDC line was cultured in 6C/Colon 1B media, which includes advanced DMEM/F-12 (Thermo Fisher Scientific, cat. 12634028), 10 mM HEPES (Thermo Fisher Scientific, cat. 15630080), 1X GlutaMAX supplement (Thermo Fisher Scientific, cat. 35050061), 0.1 mg/mL primocin (InvivoGen, cat. ant-pm-2), 10% defined fetal bovine serum, heat inactivated (HyClone Laboratories Inc., cat. SH30070.03HI), 50% L-WRN conditioned media (ATCC, cat. CRL-3276), 1.25 mM N-Acetyl-L-cysteine (Sigma-Aldrich, cat. A9165), 10 mM nicotinamide (Sigma-Aldrich, cat. N0636), 1X B-27 supplement (Thermo Fisher Scientific, cat. 17504044), 1X N-2 supplement (Thermo Fisher Scientific, cat. 17502048), 10 microM Y-27632 dihydrochloride (Tocris Bioscience, cat. 1254), and 50 ng/mL human EGF recombinant protein (Thermo Fisher Scientific, cat. PHG0311). The 485176-168-R4-J1-PDC line was cultured in Panc media, which includes all 6C/Colon 1B media components plus 100 ng/mL human FGF-10 (Thermo Fisher Scientific, cat. 100-26), 500 nM SB-431542 (Selleckchem, cat. S1067), and gastrin (Tocris, cat. 3006).
[…]
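Also: spheroids exposed to the agents for one week before reading.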
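For viability, T/C in this document: percent of vehicle DMSO control viability so 100% = untreated growth.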

With `O=c1[nH]cc(F)c(=O)[nH]1` + CN(C)c1ccc(Nc2c3ccc(NC(=O)CCN4CCCC4)cc3nc3cc(NC(=O)CCN4CCCC4)ccc23)cc1 the IC50 (curve of first compound, second compound 0.0316 µM) was over 10000 nM, the IC50 (curve of first compound, second compound 0.1 µM) was over 10000 nM and the IC50 (curve of first compound, second compound 0.316 µM) was over 10000 nM. For the same compound, the IC50 (curve of first compound, second compound 1 µM) was over 10000 nM, the IC50 (curve of first compound, second compound 3.16 µM) was over 10000 nM and the IC50 (curve of first compound, second compound 10 µM) was over 10000 nM. The viability, T/C (second compound 0.0316 µM, first compound 0.0316 µM) was 121%, the viability, T/C (second compound 0.0316 µM, first compound 0.1 µM) was 95% and the viability, T/C (second compound 0.0316 µM, first compound 0.316 µM) was 102%. The viability, T/C (second compound 0.0316 µM, first compound 1 µM) was 91.3%, the viability, T/C (second compound 0.0316 µM, first compound 3.16 µM) was 89.8% and the viability, T/C (second compound 0.0316 µM, first compound 10 µM) was 90.8%. The viability, T/C (second compound 0.1 µM, first compound 0.0316 µM) was 104%, the viability, T/C (second compound 0.1 µM, first compound 0.1 µM) was 106% and the viability, T/C (second compound 0.1 µM, first compound 0.316 µM) was 132%. For the same compound, the viability, T/C (second compound 0.1 µM, first compound 1 µM) was 100%, the viability, T/C (second compound 0.1 µM, first compound 3.16 µM) was 96.8% and the viability, T/C (second compound 0.1 µM, first compound 10 µM) was 65.5%. It also gave a viability, T/C (second compound 0.316 µM, first compound 0.0316 µM) of 103%, a viability, T/C (second compound 0.316 µM, first compound 0.1 µM) of 105% and a viability, T/C (second compound 0.316 µM, first compound 0.316 µM) of 104%. The viability, T/C (second compound 0.316 µM, first compound 1 µM) was 108%, the viability, T/C (second compound 0.316 µM, first compound 3.16 µM) was 104% and the viability, T/C (second compound 0.316 µM, first compound 10 µM) was 97%. It also gave a viability, T/C (second compound 1 µM, first compound 0.0316 µM) of 107%, a viability, T/C (second compound 1 µM, first compound 0.1 µM) of 112% and a viability, T/C (second compound 1 µM, first compound 0.316 µM) of 106%. For the same compound, the viability, T/C (second compound 1 µM, first compound 1 µM) was 99.1%, the viability, T/C (second compound 1 µM, first compound 3.16 µM) was 111% and the viability, T/C (second compound 1 µM, first compound 10 µM) was 81.5%. The viability, T/C (second compound 3.16 µM, first compound 0.0316 µM) was 81%, the viability, T/C (second compound 3.16 µM, first compound 0.1 µM) was 113% and the viability, T/C (second compound 3.16 µM, first compound 0.316 µM) was 127%. The viability, T/C (second compound 3.16 µM, first compound 1 µM) was 98.5%, the viability, T/C (second compound 3.16 µM, first compound 3.16 µM) was 125% and the viability, T/C (second compound 3.16 µM, first compound 10 µM) was 61.8%. For the same compound, the viability, T/C (second compound 10 µM, first compound 0.0316 µM) was 82.7%, the viability, T/C (second compound 10 µM, first compound 0.1 µM) was 71.3% and the viability, T/C (second compound 10 µM, first compound 0.316 µM) was 95.4%. The viability, T/C (second compound 10 µM, first compound 1 µM) was 88.7%, the viability, T/C (second compound 10 µM, first compound 3.16 µM) was 88.5% and the viability, T/C (second compound 10 µM, first compound 10 µM) was 64%.
With `O=C(NO)c1cnc(N2CCN(S(=O)(=O)c3ccc4ccccc4c3)CC2)nc1` the viability, T/C (compound 0.0316 µM) was 112% and 98.7% and 110%, the viability, T/C (compound 0.1 µM) was 49.4% and 40.7% and 59.1% and the viability, T/C (compound 0.316 µM) was 26.3% and 24.7% and 34%. For the same compound, the viability, T/C (compound 1 µM) was 0.49% and 0.43% and 0.75%, the viability, T/C (compound 3.16 µM) was 0.37% and 0.43% and 0.25% and the viability, T/C (compound 10 µM) was 0.35% and 0.28% and 0.23%. For the same compound, the IC50 (curve of compound) was 106 nM and 88 nM and 148 nM.
In the case of `C=CCn1c(=O)c2cnc(Nc3ccc(N4CCN(C)CC4)cc3)nc2n1-c1cccc(C(C)(C)O)n1`, the viability, T/C (compound 0.0316 µM) is reported as 105% and 84.5% and 97.9%, the viability, T/C (compound 0.1 µM) is reported as 81.6% and 94.9% and 101% and the viability, T/C (compound 0.316 µM) is reported as 83% and 52.6% and 63%. For the same compound, the viability, T/C (compound 1 µM) was 46.9% and 51.9% and 42%, the viability, T/C (compound 3.16 µM) was 50.9% and 46.4% and 62.5% and the viability, T/C (compound 10 µM) was 45.4% and 49.7% and 66.2%.
With `Cc1[nH]c2ccccc2c1CCNCc1ccc(/C=C/C(=O)NO)cc1` the viability, T/C (compound 0.000999 µM) was 109% and 102% and 101%, the viability, T/C (compound 0.00316 µM) was 97.9% and 99.4% and 93.7% and the viability, T/C (compound 0.00999 µM) was 108% and 97.5% and 99%. For the same compound, the viability, T/C (compound 0.0316 µM) was 83.5% and 70.5% and 71.7%, the viability, T/C (compound 0.0999 µM) was 27.5% and 29.3% and 38.2% and the viability, T/C (compound 0.316 µM) was 0.72% and 0.83% and 0.61%. For the same compound, the IC50 (curve of compound) was 63.1 nM and 56.5 nM and 67.3 nM.
